In publication PMC8706998, “Lipid Nanocarriers-Loaded Nanocomposite as a Suitable Platform to Release Antibacterial and Antioxidant Agents for Immediate Dental Implant Placement Restorative Treatment” (Pharmaceutics, 2021):
“And” between values parts separate entries of the source, which are not always exact repeats. Equal values may be shown once.

What was measured:
[1] = QRC and CPX solubility studies in aqueous media; format: physicochemical; conditions: for solubility at 120 min: 37 °C, pH 5.5, aqueous with cosolvent or surfactant or cyclodextrin, thermodynamic from solid, 37 ± 0.5 °C
Protocol: QRC, in excess, was added to each medium (1 mL) until precipitation occurred. […] The solubility tests were performed in triplicate. Results are reported as means ± SE.

[2] = Ex vivo permeation/penetration experiments in Franz-type cells; format: in vitro ADME, pig; conditions: from 30 mg BioQ-CPX
Protocol: Tissue specimens were obtained from the vestibular area of the retromolar trigone derived from 6–8-month-old pigs supplied by the Municipal Slaughterhouse of Villabate (Palermo, Italy) since withdrawn from animals intended for human consumption. By a refrigerated transport box, the specimens were immediately transferred to the laboratory within 1 h from animal sacrifice and surgically treated to remove both adipose and connective tissues in excess. Afterward, they were dipped for 30 min in a 5% THR (w/v) isotonic solution and then stored at −80 °C for a minimum period of one week. Before the permeation/penetration experiments, tissue samples were accurately washed to remove the cryoprotectant, and, subsequently, thermal shocked to obtain the buccal mucosa. Briefly, tissue samples were dipped for 30 s in a pre-warmed (70 °C) isotonic solution, and then the mucosa was carefully peeled off from the connective tissue, obtaining the heat-separated epithelium along with the intact basal lamina. Finally, it was equilibrated in an isotonic solution for 3 h by replacing the medium every 15 min to remove all the biological matter, which could affect the analysis, before use.
The ex vivo permeation/penetration studies were carried out using vertical Franz-type diffusion cells. Briefly, appropriate sections of buccal mucosa were mounted between the donor and the acceptor chambers filled with 1 mL of citrate buffer pH 5.5 and 15 mL of citrate buffer pH 5.5 amended with acetic acid 0.1% (v/v), Acys 0.002% (w/v), and β-CD 3% (w/v). The whole system was equilibrated at 37 ± 0.5 °C for 30 min. Afterward, the medium was removed from the donor compartment, promptly replaced with 30 mg of BioQ-CPX, and soaked with 0.2 mL of citrate buffer pH 5.5. Every 30 min, aliquots (0.5 mL) were withdrawn from the acceptor chamber and immediately replaced with the same volume of fresh acceptor fluid to maintain the sink conditions. Experiments were carried out at 37 ± 0.5 °C in the dark and under constant stirring, being stopped at different time points ranging from 1 to 6 h. The amount of permeated QRC and CPX were quantified by UV–Vis analysis. Data are reported as means ± SE (n = 6).
Briefly, the mucosa was dipped into 2 mL of methanol and warmed up to 60 °C. The extraction procedure was performed twice, and the collected extraction liquors were transferred into a 10 mL flask and brought to volume with fresh methanol. Thus, QRC and CPX amounts were determined by UV–Vis analysis. Results are reported as means ± SE.

[3] = QRC release study, modified transwell support with 1-octanol acceptor; format: physicochemical; conditions: QRC release from BioQ-CPX, data up to 30 h
Protocol: QRC release studies were carried out using a modified transwell permeable support (0.45 µm) filled with 5 mg of the BioQ-CPX powder and soaked with 0.2 mL of citrate buffer pH 5.5. The entire system was dipped inside a beaker filled with 8 mL of 1-octanol as a suitable acceptor fluid. […] The experiments were carried out at 37 ± 0.5 °C under constant stirring and protected by light exposure while, immediately after sampling, opportune volumes of fresh acceptor fluid were added to maintain the sink conditions. Data are reported as means ± SE (n = 6). Drug release profiles were elaborated using OriginPro 8.5 software and fitted with semi-empirical model equations. Fittings were validated by using R^2 value where a p-value of less than 0.05 was considered statistically significant.

[4] = DPPH antioxidant assay; format: biochemical; conditions: 0.08-0.01 mg/mL
Protocol: To evaluate the antioxidant activity of BioQ-CPX, the 2,2-diphenyl-1-picrylhydrazyl (DPPH) assay was performed. […] A measure of 0.5 mL of nanocomposite solution was transferred in polystyrene cuvette, added to 2.5 mL of DPPH ethanol solution (0.0295 mg/mL), and preserved by light exposure using foil. At determined time intervals (0, 0.25, 1, and 2 h), the DPPH concentration was measured spectrophotometrically at room temperature by observing the spectral range 400-800 nm and selecting λmax = 515 nm for quantification. The DPPH calibration curve was constructed analyzing DPPH ethanol solutions in the concentration range of 0.039-0.0156 mg/mL (λmax = 515 nm, regression equation: […] Results are expressed as means ± SE.

[5] = QRC stability after UV irradiation by EPR spectroscopy; format: physicochemical
Protocol: EPR measurements were carried out on 25 mg of QRC and BioQ-CPX at room temperature using a Bruker ELEXSYS E-500 spectrometer (Bruker, Billerica, MA, USA) operated at 9.8 GHz (X-band), operating at 6 mW microwave power and 0.15 mT modulation amplitude. To evaluate the effects of light exposure in the samples, UV-A/UV-B irradiator alternatively equipped with lamps of 25 W and 50 W (Light-Emitting Diode Philips, Amsterdam, The Netherlands) was used. Preliminarily, the paramagnetic center of QRC (pure drug) before and after 20 min of UV irradiation (50 W) was characterized. Afterwards, to evaluate the BioQ-CPX capability in preserving QRC from light exposure, aliquots of QRC and BioQ-CPX were irradiated by 25 W or 50 W lamps over time. […] UV irradiation was accomplished up to 60 min for all samples and EPR analysis was carried out every 5 min. Signals were normalized to the QRC mass contained in each sample. Data are reported as mean ± SE (n = 3).

[6] = cited from earlier work

Compound: O=c1c(O)c(-c2ccc(O)c(O)c2)oc2cc(O)cc(O)c12 [QRC, quercetin]
- solubility at 120 min ([1]; Citrate buffer pH 5.5/ACys plus DMSO 10% v/v): 29 µg/mL
- solubility at 120 min ([1]; Citrate buffer pH 5.5/ACys plus β-CD 2% w/v): 83 µg/mL
- solubility at 120 min ([1]; Citrate buffer pH 5.5/ACys plus β-CD 3% w/v): 103 µg/mL
- solubility enhancement compared to water solubility ([1]; in presence of β-CD 2%): 42 fold
- maximum amount accumulated into the mucosa ([2]; after 5 h): about 5 % of drugs dose
- amount accumulated into the mucosa ([2]; first hour from application): about 4 % of dose
- Korsmeyer-Peppas n [3]: 0.7915
- Korsmeyer-Peppas with Tlag n [3]: 0.6509 ± 0.0127 and 0.6509
- First-Order k ([3]; time in hours): 0.05179
- Korsmeyer-Peppas k ([3]; time in hours): 0.0578
- Korsmeyer-Peppas with Tlag k ([3]; time in hours): 0.0947
- Korsmeyer-Peppas with Tlag: Tlag ([3]; time in hours): 1.440
- Zero-Order k ([3]; time in hours): 0.02997
- %RCD compared with BioQ-CPX samples ([4]; corresponding to QRC content of the nanocomposite samples, after 1 and 2 h): same values of %RCD and trends
- scavenging activity compared with BioQ-CPX samples ([4]; within 15 min incubation): lower
- UV exposure time until Hpp plateau (antioxidant power exhausted) ([5]; 25 W or 50 W lamp, irradiation up to 60 min): 25 min
- EPR amplitude Hpp normalized to mass ([5]; 20 min UV irradiation, 50 W lamp): 1.018 u.a.
- EPR amplitude Hpp normalized to mass ([5]; not irradiated): 0.054 u.a.
- logP [6]: 1.50
